Experimental data: patent US20230095695A1, “RNAS FOR COMPLEMENT INHIBITION” (Apellis Pharmaceuticals, Inc., priority 2020, published 2023)
Oligonucleotides are written 5' to 3', each unit as a sugar letter and its base; * is a phosphorothioate linkage, no mark a phosphodiester; rarer units and linkages stand in square brackets, end groups in braces. Plain capitals give the bases only. m = 2'-O-methyl; f = 2'-fluoro

Columns and labels:
C3 mRNA [1] = assay: Dose response experiment (DRC), C3 mRNA knockdown in HeLa cells; format: cell-based, human; details: 10 concentrations from 100 nM in 6-fold dilution steps
Experimental: The top 12 siRNAs with the best activity at both doses were chosen to be tested in a dose response experiment (DRC). Dose-response experiments were done with siRNA in 10 concentrations transfected in quadruplicates, starting at 100 nM in 6-fold dilutions steps down to ˜10 fM. Mock transfected cells served as control in DRC experiments.
(§1) For each well, the target mRNA level was normalized to the respective GAPDH mRNA level. The activity of a given siRNA was expressed as percent mRNA concentration of the respective target (normalized to GAPDH mRNA) in treated cells, relative to the target mRNA concentration (normalized to GAPDH mRNA) averaged across mock transfected wells (DRCs).

C3 mRNA [2] = assay: Dual dose screen, C3 mRNA knockdown in HepG2 cells (bDNA assay); format: cell-based, human; details: 24 h; for KD @ 0.1 nM: 0.1 nM siRNA; for KD @ 10 nM: 10 nM siRNA
Experimental: HepG2 cells were obtained from ATCC (ATCC in partnership with LGC Standards, Wesel, Germany, cat. #ATCC-HB-8065) and cultured in MEM Eagle (#M2279, Sigma-Aldrich, Germany), supplemented to contain 10% fetal calf serum (#1248D, Biochrom GmbH, Berlin, Germany), 1× non-essential amino acids (#K0293; Biochrom, Berlin, Germany), 4 mM L-Glutamine (#K0283, Biochrom, Berlin, Germany) and 100 U/ml Penicillin/100 μg/ml Streptomycin (#A2213, Biochrom GmbH, Berlin, Germany) at 37° C. in an atmosphere with 5% C02 in a humidified incubator.
For transfection of HepG2 cells with siRNAs, cells were seeded at a density of 15,000 cells/well into collagen-coated 96-well tissue culture plates (#655150, GBO, Germany). Transfection of siRNA was carried out with Lipofectamine RNAiMax (Invitrogen/Life Technologies, Karlsruhe, Germany) according to manufacturer's instructions for reverse transfection directly after seeding. In this experiment, a dual dose screen was performed with siRNAs in quadruplicates at 10 nM and 0.1 nM, respectively. siRNAs targeting Aha1 served at the same time as an unspecific control for C3 target mRNA expression and as a positive control to analyze transfection efficiency with regards to Aha1 mRNA level. Firefly-Luciferase and Renilla-Luciferase was used as a mock transfection.
After 24 h of incubation with siRNAs, medium was removed and cells were lysed in 150 μl Medium-Lysis Mixture (1 volume lysis mixture, 2 volumes cell culture medium) and then incubated at 53° C. for 30 minutes. bDNA assay (ThermoFisher QuantiGene RNA assays) was performed according to manufacturer's instructions with a probeset directed to human C3 (accession-#NM_000064 between base 106 and base 907 of the sequence) which had been designed by ThermoFisher Scientific, and synthesized by Metabion International AG, Planegg, Germany. Luminescence was read using 1420 Luminescence Counter (WALLAC VICTOR Light, Perkin Elmer, Rodgau-Jugesheim, Germany) following 30 minutes incubation at room temperature in the dark.
Aha1-siRNA served as an unspecific control for C3 mRNA expression and as a positive control to analyze the transfection efficiency by measuring Aha1 mRNA level by hybridization with an Aha1 probeset. The Aha-1 siRNA used had been formerly selected from a big set of candidate siRNAs, and is known to be very active in vitro and in vivo. Transfection efficiency for each 96-well plate was calculated by analysis of Aha1-knock-down with Aha1-siRNA (normalized to GapDH) compared to an unspecific control. […] Transfection efficiency with siAha1 at the 10 nM dose was about 90%, and the transfection efficiency at the 0.5 nM dose was about 85%.
as §1, with “Activity of the siRNAs was measured by the fluorescence or percent mRNA concentration of the respective targets. For” for “For”, “control wells.” for “mock transfected wells (DRCs).”

## 1 (sense mU*mC*fAmAmCmUfCfAfCmCmUfGmUmAmAmUfAmAmA; antisense mU*fU*mUmAmUmUmAmCmAmGmGmUmGfAmGmUmUmGmA*mU*mU; siRNA) [compound 1]
C3 mRNA [1]
  IC50: 0.086 nM
  IC80: 12.7 nM
C3 mRNA [2]
  KD @ 0.1 nM: 68%
  KD @ 10 nM: 92%

## 4 (sense mU*mC*fCmAmAmGfCfCfUmUmGfGmCmUmCmAfAmUmA; antisense mU*fA*mUmUmGmAmGmCmCmAmAmGmGfCmUmUmGmGmA*mU*mU; siRNA) [compound 4]
C3 mRNA [1]
  IC50: 0.208 nM
  IC80: 11.8 nM
C3 mRNA [2]
  KD @ 0.1 nM: 66%
  KD @ 10 nM: 94%

## 9 (sense mA*mU*fCmGmGmAfUfCfUmUmCfAmCmCmGmUfCmAmA; antisense mU*fU*mGmAmCmGmGmUmGmAmAmGmAfUmCmCmGmAmU*mU*mU; siRNA) [compound 9]
C3 mRNA [1]
  IC50: 0.751 nM
C3 mRNA [2]
  KD @ 0.1 nM: 63%
  KD @ 10 nM: 91%

## 10 (sense mU*mC*fAmAmCmUfUfCfCmUmCfCmUmGmCmGfAmAmA; antisense mU*fU*mUmCmGmCmAmGmGmAmGmGmAfAmGmUmUmGmA*mU*mU; siRNA) [compound 10]
C3 mRNA [1]
  IC50: 0.172 nM
C3 mRNA [2]
  KD @ 0.1 nM: 84%
  KD @ 10 nM: 88%

## 16 (sense mC*mA*fAmUmGmAfCfUfUmUmGfAmCmGmAmGfUmAmA; antisense mU*fU*mAmCmUmCmGmUmCmAmAmAmGfUmCmAmUmUmG*mU*mU; siRNA) [compound 16]
C3 mRNA [1]
  IC50: 0.087 nM
  IC80: 6.19 nM
C3 mRNA [2]
  KD @ 0.1 nM: 67%
  KD @ 10 nM: 92%

## 22 (sense mC*mC*fAmAmCmUfAfCfAmUmGfAmAmCmCmUfAmCmA; antisense mU*fG*mUmAmGmGmUmUmCmAmUmGmUfAmGmUmUmGmG*mU*mU; siRNA) [compound 22]
C3 mRNA [1]
  IC50: 0.246 nM
C3 mRNA [2]
  KD @ 0.1 nM: 67%
  KD @ 10 nM: 93%
